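Abbreviation: GI50, concentration required for 50% inhibition of growth. The concentration for full growth arrest is given as TGI.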
How the values were obtained:
Assay in all cases: NCI-60 cell line screen, 384-well format
786-0 renal = tested on: 786-0 renal
SF-295 CNS = tested on: SF-295 CNS
SK-MEL-5 melanoma = tested on: SK-MEL-5 melanoma
OVCAR-4 ovarian = tested on: OVCAR-4 ovarian
RPMI-8226 leukemia = tested on: RPMI-8226 leukemia
U251 glioblastoma = tested on: U251 glioblastoma
M14 melanoma = tested on: M14 melanoma
OVCAR-5 ovarian = tested on: OVCAR-5 ovarian
HOP-92 NSCLC = tested on: HOP-92 NSCLC
A498 renal = tested on: A498 renal
HT29 colon = tested on: HT29 colon
KM12 colon = tested on: KM12 colon
NCI-H322M lung = tested on: NCI-H322M lung

CC(C)(O)C1CCC(Nc2ccc3ncc(-c4cccc(C(F)(F)F)c4)n3n2)CC1 (stereo unspecified)
GI50 (786-0 renal): 554 nM | TGI (786-0 renal): 1900 nM | GI50 (SF-295 CNS): 1050 nM | TGI (SF-295 CNS): 2400 nM | GI50 (SK-MEL-5 melanoma): 948 nM | TGI (SK-MEL-5 melanoma): 2320 nM | GI50 (OVCAR-4 ovarian): 994 nM | TGI (OVCAR-4 ovarian): 4820 nM | GI50 (RPMI-8226 leukemia): 190 nM | TGI (RPMI-8226 leukemia): 365 nM | GI50 (U251 glioblastoma): 1320 nM | TGI (U251 glioblastoma): 2830 nM | GI50 (M14 melanoma): 798 nM | TGI (M14 melanoma): 2220 nM | GI50 (OVCAR-5 ovarian): 1820 nM | TGI (OVCAR-5 ovarian): 6510 nM | GI50 (HOP-92 NSCLC): 670 nM | TGI (HOP-92 NSCLC): 3130 nM | GI50 (A498 renal): 1160 nM | TGI (A498 renal): 2590 nM | GI50 (HT29 colon): 1310 nM | TGI (HT29 colon): 3050 nM | GI50 (KM12 colon): 51 nM | TGI (KM12 colon): 2130 nM | GI50 (NCI-H322M lung): 1730 nM | TGI (NCI-H322M lung): 3930 nM

Source: PubChem BioAssay (NCI)
